Literature values as cited in patent publication US8445670B2, “Combinatorial library approach to iminocyclitols with biological activity” (United Therapeutics Corporation, priority 2005, dated 2013).

Tested on: bovine viral diarrhoea virus (BVDV)
Conditions: reference DNJ derivatives, values given with literature references

Row | IC50 [µM] | Compound
1 | 125 | CCCCN1C[C@H](O)[C@@H](O)[C@H](O)[C@H]1CO [N-n-butyl DNJ]
2 | 10 | CCCCCCCCCN1C[C@H](O)[C@@H](O)[C@H](O)[C@H]1CO [N-n-nonyl DNJ]
